ChEMBL document CHEMBL1131475, “Discovery of ritonavir, a potent inhibitor of HIV protease with high oral bioavailability and clinical efficacy” (J Med Chem, 1998)

How the values were obtained:
[1] = organism: Rattus norvegicus; test: Plasma T1/2 in rat; assay type: ADME, organism-based; conditions: in vivo
[2] = in vivo; conditions: rat, plasma, po
[3] = in vivo; conditions: rat, plasma, po, 10 mg/kg
[4] = in vivo; conditions: rat, plasma, po; remark: listed apart in the source
[5] = Oral bioavailability in rat; assay type: ADME, organism-based; conditions: in vivo

SMILES	T1/2 [1]	AUC [2] [ng·h/mL]	Cmax [3] [nM]	Tmax [4] [min]	bioavailability [5] [%]
CCN(Cc1csc(C(C)C)n1)C(=O)NC(C)C(=O)N[C@@H](Cc1ccccc1)C[C@H](O)[C@H](Cc1ccccc1)NC(=O)OCc1cncs1 (stereo partly drawn)	Not soluble	–	–	–	0
CC(C)c1nc(COC(=O)NC(C(=O)N[C@@H](Cc2ccccc2)[C@@H](O)C[C@H](Cc2ccccc2)NC(=O)OCc2cncs2)C(C)C)cs1 (stereo partly drawn)	Not soluble	–	–	–	0
CC(C)c1nc(COC(=O)NC(C(=O)N[C@@H](Cc2ccccc2)C[C@H](O)[C@H](Cc2ccccc2)NC(=O)OCc2cncs2)C(C)C)cs1 (stereo partly drawn)	Not soluble	10	40	6	–

Results, then the compound that gave them:

T1/2 [1]	AUC [2] [ng·h/mL]	Cmax [3] [nM]	Tmax [4] [min]	bioavailability [5] [%]	SMILES
Not soluble	40	170	6	–	CC(C)C(NC(=O)OCc1csc(N2CCOCC2)n1)C(=O)N[C@@H](Cc1ccccc1)C[C@H](O)[C@H](Cc1ccccc1)NC(=O)OCc1cncs1 (stereo partly drawn)
Not soluble	1490	2980	8.4	–	CC(C)C(NC(=O)OCc1ccccn1)C(=O)N[C@@H](Cc1ccccc1)[C@@H](O)C[C@H](Cc1ccccc1)NC(=O)OCc1cncs1 (stereo partly drawn)
Not soluble	–	–	–	0	CC(C)c1nc(CCOC(=O)NC(C(=O)N[C@@H](Cc2ccccc2)[C@@H](O)C[C@H](Cc2ccccc2)NC(=O)OCc2cncs2)C(C)C)cs1 (stereo partly drawn)
